Assay results from patent US20230107642A1 (Erasca, Inc., priority 2020, published 2023).

Molecular target: T1, K-Ras G12C (Homo sapiens, UniProt P01116, G12C)
T1 construct: This protein contained 188 amino acids in total, including an N-terminal 6-Histidine tag; made in house; host or cells: E. coli BL21
Test: CAF assay (% CAF; method in Example 7, not in this part)
Type: binding
Details: 10 uM compound, 1 h incubation

SMILES | % CAF @ 10 uM, 1h
C=CC(=O)N1C[C@H](C)N(c2nc(=O)n3c4c(c(-c5cccc6cnn(C)c56)c(Cl)cc24)SC[C@@H]3CN2CCN(CC(F)F)CC2)C[C@H]1C (atropisomer, axis not shown) [Example 570, (3S,10S)-7-((2S,5R)-4-acryloyl-2,5-dimethylpiperazin-1-yl)-9-chloro-3-((4-(2,2-difluoroethyl)piperazin-1-yl)methyl)-10-(1-methyl-1H-indazol-7-yl)-2,3-dihydro-5H-[1,4]thiazino[2,3,4-ij]quinazolin-5-one] | 0%
C=CC(=O)N1[C@H](C)CN(c2nc(=O)n3c4c(c(-c5ccc(F)cc5F)c(C(F)(F)F)cc24)SC[C@@H]3CN2CCC3(CC2)COC3)C[C@@H]1C (atropisomer, axis not shown) [Example 576, (3S,10S)-3-(2-oxa-7-azaspiro[3.5]nonan-7-ylmethyl)-7-((3S,5R)-4-acryloyl-3,5-dimethylpiperazin-1-yl)-10-(2,4-difluorophenyl)-9-(trifluoromethyl)-2H-[1,4]thiazino[2,3,4-ij]quinazolin-5(3H)-one] | 80.5%
C=CC(=O)N1[C@H](C)CN(c2nc(=O)n3c4c(c(-c5ccc(F)cc5F)c(C(F)(F)F)cc24)SC[C@@H]3CN2CCC3(CC2)COC3)C[C@@H]1C (atropisomer, axis not shown) [Example 577, (3S)-3-(2-oxa-7-azaspiro[3.5]nonan-7-ylmethyl)-7-((3S,5R)-4-acryloyl-3,5-dimethylpiperazin-1-yl)-10-(2,4-difluorophenyl)-9-(trifluoromethyl)-2H-[1,4]thiazino[2,3,4-ij]quinazolin-5(3H)-one] | 74.8%
C=CC(=O)N1CCN(c2nc(=O)n3c4c(c(-c5ccc(F)cc5F)c(C(F)(F)F)cc24)SC[C@@H]3COC)CC1 (atropisomer, axis not shown) [Example 578, (3S,10R)-7-(4-acryloylpiperazin-1-yl)-10-(2,4-difluorophenyl)-3-(methoxymethyl)-9-(trifluoromethyl)-2,3-dihydro-5H-[1,4]thiazino[2,3,4-ij]quinazolin-5-one] | 98%
C=CC(=O)N1CCN(c2nc(=O)n3c4c(c(-c5ccc(F)cc5F)c(C(F)(F)F)cc24)SC[C@@H]3COC)CC1 (atropisomer, axis not shown) [Example 579, (3S,10S)-7-(4-acryloylpiperazin-1-yl)-10-(2,4-difluorophenyl)-3-(methoxymethyl)-9-(trifluoromethyl)-2,3-dihydro-5H-[1,4]thiazino[2,3,4-ij]quinazolin-5-one] | 96.9%
C=CC(=O)N1C[C@H](C)N(c2nc(=O)n3c4c(c(-c5ccc(F)cc5F)c(C(F)(F)F)cc24)SC[C@@H]3CN2CCN(C3CC3)CC2)C[C@H]1C (single isomer, unassigned) [Example 580] | 91.5%
C=CC(=O)N1C[C@H](C)N(c2nc(=O)n3c4c(c(-c5ccc(F)cc5F)c(C(F)(F)F)cc24)SC[C@@H]3CN2CCN(C3CC3)CC2)C[C@H]1C (single isomer, unassigned) [Example 581] | 97.4%

Same assay, conditions: 10 uM, 60 min; Table 2a

SMILES | % CAF 10 uM @ 60 min
C=CC(=O)N1CCN(c2nc(=O)n3c4c(c(-c5cc(C6CC6)ccc5F)c(Cl)cc24)SCC3)[C@@H](C)C1 [Example 62a, 7-((S)-4-acryloyl-2-methylpiperazin-1-yl)-9-chloro-10-(5-cyclopropyl-2-fluorophenyl)-2,3-dihydro-5H-[1,4]thiazino[2,3,4-ij]quinazolin-5-one] | 67%
C[C@H]1CN(C(=O)/C=C/C(F)F)CCN1c1nc(=O)n2c3c(c(-c4cc(F)cc(Cl)c4)c(Cl)cc13)SCC2 [Example 63, (S,E)-9-chloro-10-(3-chloro-5-fluorophenyl)-7-(4-(4,4-difluorobut-2-enoyl)-2-methylpiperazin-1-yl)-2,3-dihydro-5H-[1,4]thiazino[2,3,4-ij]quinazolin-5-one] | 75%
C=C(F)C(=O)N1CCN(c2nc(=O)n3c4c(c(-c5cc(F)cc(Cl)c5)c(Cl)cc24)SCC3)[C@@H](C)C1 [Example 64, (S)-9-chloro-10-(3-chloro-5-fluorophenyl)-7-(4-(2-fluoroacryloyl)-2-methylpiperazin-1-yl)-2,3-dihydro-5H-[1,4]thiazino[2,3,4-ij]quinazolin-5-one] | 3%
C[C@H]1CN(C(=O)/C=C/C(F)(F)F)CCN1c1nc(=O)n2c3c(c(-c4cc(F)cc(Cl)c4)c(Cl)cc13)SCC2 [Example 65] | 70%
C=CC(=O)N1CCN(c2nc(=O)n3c4c(c(-c5cc(F)cc(F)c5)c(Cl)cc24)SCC3)[C@@H](C)C1 [Example 66, (S)-7-(4-acryloyl-2-methylpiperazin-1-yl)-9-chloro-10-(3,5-difluorophenyl)-2,3-dihydro-5H-[1,4]thiazino[2,3,4-ij]quinazolin-5-one] | 91%
C[C@H]1CN(C(=O)/C=C/C(F)F)CCN1c1nc(=O)n2c3c(c(-c4cc(F)cc(F)c4)c(Cl)cc13)SCC2 [Example 67, (S,E)-9-chloro-7-(4-(4,4-difluorobut-2-enoyl)-2-methylpiperazin-1-yl)-10-(3,5-difluorophenyl)-2,3-dihydro-5H-[1,4]thiazino[2,3,4-ij]quinazolin-5-one] | 87%

Same assay, conditions: 10 uM, 1 h; Table 3

SMILES | % CAF @ 10 uM, 1h
C[C@H]1CN(C(=O)/C=C/C(F)F)CCN1c1nc(=O)n2c3c(c(-c4cc(F)cc(Cl)c4)c(Cl)cc13)SCC2 [Example 63, (S,E)-9-chloro-10-(3-chloro-5-fluorophenyl)-7-(4-(4,4-difluorobut-2-enoyl)-2-methylpiperazin-1-yl)-2,3-dihydro-5H-[1,4]thiazino[2,3,4-ij]quinazolin-5-one] | 67%
C=C(F)C(=O)N1CCN(c2nc(=O)n3c4c(c(-c5cc(F)cc(Cl)c5)c(Cl)cc24)SCC3)[C@@H](C)C1 [Example 64, (S)-9-chloro-10-(3-chloro-5-fluorophenyl)-7-(4-(2-fluoroacryloyl)-2-methylpiperazin-1-yl)-2,3-dihydro-5H-[1,4]thiazino[2,3,4-ij]quinazolin-5-one] | 75%
C[C@H]1CN(C(=O)/C=C/C(F)(F)F)CCN1c1nc(=O)n2c3c(c(-c4cc(F)cc(Cl)c4)c(Cl)cc13)SCC2 [Example 65] | 3%
C=CC(=O)N1CCN(c2nc(=O)n3c4c(c(-c5cc(F)cc(F)c5)c(Cl)cc24)SCC3)[C@@H](C)C1 [Example 66, (S)-7-(4-acryloyl-2-methylpiperazin-1-yl)-9-chloro-10-(3,5-difluorophenyl)-2,3-dihydro-5H-[1,4]thiazino[2,3,4-ij]quinazolin-5-one] | 70%
C[C@H]1CN(C(=O)/C=C/C(F)F)CCN1c1nc(=O)n2c3c(c(-c4cc(F)cc(F)c4)c(Cl)cc13)SCC2 [Example 67, (S,E)-9-chloro-7-(4-(4,4-difluorobut-2-enoyl)-2-methylpiperazin-1-yl)-10-(3,5-difluorophenyl)-2,3-dihydro-5H-[1,4]thiazino[2,3,4-ij]quinazolin-5-one] | 91%
C=CC(=O)N1CCN(c2nc(=O)n3c4c(c(-c5ccc(F)cc5)c(Cl)cc24)SC[C@H]3CC2CCN(CC(F)F)CC2)[C@@H](C)C1 [Example 68, (R)-7-((S)-4-acryloyl-2-methylpiperazin-1-yl)-9-chloro-3-((1-(2,2-difluoroethyl)piperidin-4-yl)methyl)-10-(4-fluorophenyl)-2,3-dihydro-5H-[1,4]thiazino[2,3,4-ij]quinazolin-5-one] | 87%
C=CC(=O)N1CCN(c2nc(=O)n3c4c(c(-c5ccc(F)cc5F)c(Cl)cc24)SC[C@H]3CC2CCN(CC(F)F)CC2)[C@@H](C)C1 [Example 69, (3R)-7-((S)-4-acryloyl-2-methylpiperazin-1-yl)-9-chloro-3-((1-(2,2-difluoroethyl)piperidin-4-yl)methyl)-10-(2,4-difluorophenyl)-2,3-dihydro-5H-[1,4]thiazino[2,3,4-ij]quinazolin-5-one] | 96%
C=CC(=O)N1CCN(c2nc(=O)n3c4c(c(-c5cccc6ccncc56)c(Cl)cc24)SCC3)[C@@H](C)C1 [Example 71, 7-((S)-4-acryloyl-2-methylpiperazin-1-yl)-9-chloro-10-(isoquinolin-8-yl)-2,3-dihydro-5H-[1,4]thiazino[2,3,4-ij]quinazolin-5-one] | 87.8%
C=CC(=O)N1C2CN(C(C)=O)CC1CN(c1nc(=O)n3c4c(c(-c5ccc(F)cc5F)c(Cl)cc14)SCC3)C2 [Example 72] | 80.5%
C=CC(=O)N1CCN(c2nc(=O)n3c4c(c(-c5cc(F)cc(Cl)c5)c(Cl)cc24)SCC3)[C@@H](C)C1 [Example 73, (S)-7-(4-acryloyl-2-methylpiperazin-1-yl)-9-chloro-10-(3-chloro-5-fluorophenyl)-2,3-dihydro-5H-[1,4]thiazino[2,3,4-ij]quinazolin-5-one] | 73%
C=CC(=O)N1CCN(c2nc(=O)n3c4c(c(-c5cccc(F)c5F)c(Cl)cc24)SCC3)[C@@H](C)C1 [Example 74, 7-((S)-4-acryloyl-2-methylpiperazin-1-yl)-9-chloro-10-(2,3-difluorophenyl)-2,3-dihydro-5H-[1,4]thiazino[2,3,4-ij]quinazolin-5-one] | 95.6%
C=CC(=O)N1CCN(c2nc(=O)n3c4c(c(-c5ccc(F)cc5F)c(Cl)cc24)SC(C)(C)C3)[C@@H](C)C1 [Example 75, 7-((S)-4-acryloyl-2-methylpiperazin-1-yl)-9-chloro-10-(2,4-difluorophenyl)-2,2-dimethyl-2,3-dihydro-5H-[1,4]thiazino[2,3,4-ij]quinazolin-5-one] | 86.8%
C=CC(=O)N1CCN(c2nc(=O)n3c4c(c(-c5ccc(F)cc5F)c(Cl)cc24)SCC3)C[C@H]1C#N [Example 77, (2S)-1-acryloyl-4-(9-chloro-10-(2,4-difluorophenyl)-5-oxo-2,3-dihydro-5H-[1,4]thiazino[2,3,4-ij]quinazolin-7-yl)piperazine-2-carbonitrile] | 82%
C=C(F)C(=O)N1CCN(c2nc(=O)n3c4c(c(-c5ccc(Cl)c(F)c5)c(Cl)cc24)SCC3)[C@@H](C)C1 [Example 78, (S)-9-chloro-10-(4-chloro-3-fluorophenyl)-7-(4-(2-fluoroacryloyl)-2-methylpiperazin-1-yl)-2,3-dihydro-5H-[1,4]thiazino[2,3,4-ij]quinazolin-3-one] | 6.7%
C[C@H]1CN(C(=O)/C=C/C(F)(F)F)CCN1c1nc(=O)n2c3c(c(-c4ccc(Cl)c(F)c4)c(Cl)cc13)SCC2 [Example 79, (S,E)-9-chloro-10-(4-chloro-3-fluorophenyl)-7-(2-methyl-4-(4,4,4-trifluorobut-2-enoyl)piperazin-1-yl)-2,3-dihydro-5H-[1,4]thiazino[2,3,4-ij]quinazolin-5-one] | 92%
C[C@H]1CN(C(=O)/C=C/C(F)F)CCN1c1nc(=O)n2c3c(c(-c4ccc(Cl)c(F)c4)c(Cl)cc13)SCC2 [Example 80, (S,E)-9-chloro-10-(4-chloro-3-fluorophenyl)-7-(4-(4,4-difluorobut-2-enoyl)-2-methylpiperazin-1-yl)-2,3-dihydro-5H-[1,4]thiazino[2,3,4-ij]quinazolin-5-one] | 93.5%

Same assay, conditions: 10 μM, 1 h; Table 4

SMILES | % CAF @ 10 μM, 1 h
C=CC(=O)N1CCN(c2nc(=O)n3c4c(c(-c5ccc(F)cc5F)c(C(F)(F)F)cc24)SC[C@@H]3CN2CCN(CC(F)F)CC2)[C@@H](C)C1 [Example 19, (3S)-7-((S)-4-acryloyl-2-methylpiperazin-1-yl)-3-((4-(2,2-difluoroethyl)piperazin-1-yl)methyl)-10-(2,4-difluorophenyl)-9-(trifluoromethyl)-2H-[1,4]thiazino[2,3,4-ij]quinazolin-5(3H)-one] | 96%
